From patent US11058653B2, “Compositions comprising desaminotyrosine and uses thereof to enhance type I interferon stimulation” (Washington University, priority 2016, dated 2021)
“Also recorded” adds a separate entry of the source.

Columns and labels:
[1] = test system: type I IFN response elements (ISREs); assay: ISRE luciferase reporter metabolic screen (2fTGH-ISRE-CBG99 cell line); type: cell-based
From the text: Therefore, a library of microbiome associated metabolites was screened for the ability to enhance type I IFN signaling.^21 A reported cell line that harbors multiple type I IFN response elements (ISREs) driving firefly luciferase was utilized.^22 Each metabolite was screened for the ability to enhance reporter activity in the background of type I IFN or polyIC (an inducer of type I IFN production) treatment (schematic FIG. 4A). Using this methodology, 11 metabolites were identified that increased reporter activity following polyIC co-stimulation (FIG. 4B) and 5 metabolites that increased ISRE reporter activity with type I IFN co-stimulation (FIG. 10).
Metabolites were screened using the 2fTGH-ISRE-CBG99 luciferase cell line.^22 The day before screening the reporter cells were plated at 3×10^4 cell/well in 96 well plates. […] Luciferase was measured at 14 hours post-treatment for IFN-β, and 24 hours post-treatment for poly(IC) using the […] […] Plates were read on a luminometer (1 second read time) using the CYTATION 5 (BioTek). For secondary validation, cells were treated with 1000 μM, 100 μM, 10 μM, and 1 μM of metabolite and 5 or 50 U/ml of IFN-β (PBL Assay Science) or 2.5 or […] of poly(IC) (Amersham Biosciences) and measured as above.

type I IFN activity = type: in vivo, mice; details: after 2-week antibiotic course; desaminotyrosine orally plus polyIC injections vs polyIC alone
[2] = test system: H1N1 influenza strain PR8; assay: Influenza infection of mice, strain PR8; type: in vivo; details: mice infected with PR8
From the text: (§1) FIG. 19A, FIG. 19B, FIG. 19C, FIG. 19D, FIG. 19E, FIG. 19F, FIG. 19G, FIG. 19H, FIG. 19I, FIG. 19J, FIG. 19L, FIG. 19K, FIG. 19M, and FIG. 19N (FIG. 19A and FIG. 19B) Representative images of influenza H1N1 staining by polyclonal antibody on lung cross sections from wild-type (WT) (FIG. 19A) and Irgm1^−/− (FIG. 19B) mice 6 days postinfection (representative images from 5-6 mice per group from two experiments). Bar=200 μm. (FIG. 19C and FIG. 19D) Stool (FIG. 19C) and serum (FIG. 19D) desaminotyrosine levels measured by mass spectroscopy in wild-type mice mock or treated with two weeks of antibiotics and then treated with 200 mM desaminotyrosine in drinking water for one week (n=5-13 per group from two experiments). (FIG. 19E, FIG. 19F, FIG. 19G, and FIG. 19H) Kaplan-Meier survival analysis of nonantibiotic and antibiotic-treated wild-type mice given control or desaminotyrosine in drinking water and then infected with H1N1 influenza strains PR8 (FIG. 19E and FIG. 19F) or Cali/09 (FIG. 19G and FIG. 19H) (n=10 mice per group). *p<0.05 by Mantel-Cox test. (FIG. 19I) Kaplan-Meier survival analysis of wild-type mice treated with indicated antibiotic(s) and then infected with influenza (n=20 mice per group from two experiments). *p<0.05, **p<0.01, and ****p<0.0001 compared to mock treated infected mice by Mantel-Cox test with Bonferroni-corrected threshold. […]

[3] = test system: H1N1 influenza strain California/09; assay: Influenza infection of mice, strain California/09; type: in vivo; details: mice infected with California/09
From the text: as §1

[4] = test system: bone marrow derived macrophages infected with Influenza H1N1; type: cell-based
[5] = test system: type I IFN signaling in BMDMs; type: cell-based, mouse
epithelial proliferation = assay: Crypt height and epithelial proliferation in mice; type: in vivo; details: VNAM 2 weeks, then 200 mM desaminotyrosine in drinking water
Experimental: FIG. 13 depicts an experimental scheme of mice treated with VNAM for 2 weeks and then give +/−200 mM desaminotyrosine in the drinking water for 1 week. After 1 week, the mice were continued on +/−200 mM desaminotyrosine and then treated with +/−1 mg/kg polyIC intraperitoneally once per day for 4 days and then sacrificed 1 day later.
(FIG. 14A, FIG. 14B, FIG. 14C, and FIG. 14D) Representative images of the crypt height for control (FIG. 14A), polyIC (FIG. 14B), deasminotyrosine, (FIG. 14C), and desaminotyrosine+polyIC (FIG. 14D) treated mice. FIG. 14E depicts a graph quantifying the crypt height after the various treatments relative to the control treated mice.
To examine the effects of desaminotyrosine on epithelial proliferation, mice were treated with and without antibiotics for 2 weeks and then with or without desaminotyrosine for […] and with or without polyIC (FIG. 13).

[6] = test system: dextran sodium sulfate (DSS) induced colitis; type: in vivo; details: antibiotic treated mice, 2.5% DSS
[7] = Barrier function: 4 kD dextran (FD4) in serum after gavage; type: in vivo, mice; details: VNAM 2 weeks then 200 mM desaminotyrosine 1 week in drinking water
Experimental: FIG. 17A depicts a graph quantifying the amount of damaged area following treatment with DSS +/−desaminotyrosine. FIG. 17B depicts a graph dextrain-FD4 measured in the serum of mice treated with VNAM for 2 weeks and then +/−200 mM of desaminotyrosine for 1 week in the drinking water. 4 kD Dextran was administered by gavage and serum collected 4 hours post-gavage.

[8] = test system: influenza A/WSN/33 (rWSN) H1N1 virus; details: mouse, in vivo

SMILES	ISRE reporter activity (fold increase in luminescence), type I IFN signaling ([1]; with polyIC co-stimulation)	ISRE reporter activity (fold increase in luminescence), type I IFN signaling ([1]; with type I IFN (IFN-β) co-stimulation)	type I IFN activity in the serum (type I IFN activity)	protection (survival) [2]	protection (survival) [3]	influenza RNA in bone marrow derived macrophages ([4]; 24 hours pretreatment (100 μM), then infection MOI-2 48 hours, IFN/Ifnar-dependent)	ISG transcripts (Oas1, IP-10) after in vitro influenza infection ([4]; pretreated BMDMs, Ifnar-dependent)	polyIC and type I IFN expression of IP-10 ([5]; BMDMs from Mavs−/− mice)	IP-10 expression ([5]; BMDMs from Stat1−/− mice, polyIC or type I IFN with desaminotyrosine)	ISG transcript abundance (IP-10) ([5]; wild-type BMDMs, combined with either polyIC or type I IFN)	crypt height (epithelial proliferation)	epithelial proliferation (epithelial proliferation; alone)	response to DSS injury (epithelial proliferation, crypt preservation, damage) [6]	damaged area of the distal colon after DSS treatment ([6]; with desaminotyrosine (control mice ~90%)) [%]	barrier function (dextran-FD4 in serum 4 hours post-gavage) [7]	airway epithelial damage and apoptosis (H+E, cleaved caspase 3) [8]	desaminotyrosine mediated protection (survival) [8]	phenotypes associated with antibiotic treatment (morbidity and mortality) [8]	viral RNA in the lungs (matrix, qRT-PCR) [8]	influenza associated-mortality [8]
O=C(O)CCc1ccc(O)cc1 [desaminotyrosine, 3-(4-hydroxyphenyl)propanoic acid]	enhanced type I IFN signaling in a dose-dependent manner	enhanced type I IFN signaling in a dose-dependent manner	increased type I IFN activity in the serum	protected	protected	decreased influenza RNA; also recorded: depleted	increased ISG transcripts	still enhanced	not enhanced	increased	increased crypt height	increased; also recorded: stimulated epithelia proliferation in the small intestine alone	promoted epithelial profliferation and crypt preservation; also recorded: rescues DSS damage	~8	no effect on barrier function; also recorded: Not significant	greater airway epithelial damage and apoptosis were observed in control lungs	abolished	recused the phenotypes associated with antibiotic treatment	less viral RNA was found in the lungs	
Cc1ncc([N+](=O)[O-])n1CCO [metronidazole, reference compound]																				enhanced influenza associated-mortality
CN[C@H](CC(C)C)C(=O)N[C@H]1C(=O)N[C@@H](CC(N)=O)C(=O)N[C@H]2C(=O)N[C@H]3C(=O)N[C@H](C(=O)N[C@H](C(=O)O)c4cc(O)cc(O)c4-c4cc3ccc4O)[C@H](O)c3ccc(c(Cl)c3)Oc3cc2cc(c3O[C@@H]2O[C@H](CO)[C@@H](O)[C@H](O)[C@H]2O[C@H]2C[C@](C)(N)[C@H](O)[C@H](C)O2)Oc2ccc(cc2Cl)[C@H]1O [vancomycin, reference compound]																				enhanced influenza associated-mortality
